One block for each compound: values may come before it.
Target: T1, ACE from crude rabbit lung acetone powder (Oryctolagus cuniculus, UniProt P12822)
T1 construct: a preparation of ACE from crude rabbit lung acetone powder; from tissue; host or cells: rabbit lung (crude acetone powder)
T1 sequence (P12822 34-1310): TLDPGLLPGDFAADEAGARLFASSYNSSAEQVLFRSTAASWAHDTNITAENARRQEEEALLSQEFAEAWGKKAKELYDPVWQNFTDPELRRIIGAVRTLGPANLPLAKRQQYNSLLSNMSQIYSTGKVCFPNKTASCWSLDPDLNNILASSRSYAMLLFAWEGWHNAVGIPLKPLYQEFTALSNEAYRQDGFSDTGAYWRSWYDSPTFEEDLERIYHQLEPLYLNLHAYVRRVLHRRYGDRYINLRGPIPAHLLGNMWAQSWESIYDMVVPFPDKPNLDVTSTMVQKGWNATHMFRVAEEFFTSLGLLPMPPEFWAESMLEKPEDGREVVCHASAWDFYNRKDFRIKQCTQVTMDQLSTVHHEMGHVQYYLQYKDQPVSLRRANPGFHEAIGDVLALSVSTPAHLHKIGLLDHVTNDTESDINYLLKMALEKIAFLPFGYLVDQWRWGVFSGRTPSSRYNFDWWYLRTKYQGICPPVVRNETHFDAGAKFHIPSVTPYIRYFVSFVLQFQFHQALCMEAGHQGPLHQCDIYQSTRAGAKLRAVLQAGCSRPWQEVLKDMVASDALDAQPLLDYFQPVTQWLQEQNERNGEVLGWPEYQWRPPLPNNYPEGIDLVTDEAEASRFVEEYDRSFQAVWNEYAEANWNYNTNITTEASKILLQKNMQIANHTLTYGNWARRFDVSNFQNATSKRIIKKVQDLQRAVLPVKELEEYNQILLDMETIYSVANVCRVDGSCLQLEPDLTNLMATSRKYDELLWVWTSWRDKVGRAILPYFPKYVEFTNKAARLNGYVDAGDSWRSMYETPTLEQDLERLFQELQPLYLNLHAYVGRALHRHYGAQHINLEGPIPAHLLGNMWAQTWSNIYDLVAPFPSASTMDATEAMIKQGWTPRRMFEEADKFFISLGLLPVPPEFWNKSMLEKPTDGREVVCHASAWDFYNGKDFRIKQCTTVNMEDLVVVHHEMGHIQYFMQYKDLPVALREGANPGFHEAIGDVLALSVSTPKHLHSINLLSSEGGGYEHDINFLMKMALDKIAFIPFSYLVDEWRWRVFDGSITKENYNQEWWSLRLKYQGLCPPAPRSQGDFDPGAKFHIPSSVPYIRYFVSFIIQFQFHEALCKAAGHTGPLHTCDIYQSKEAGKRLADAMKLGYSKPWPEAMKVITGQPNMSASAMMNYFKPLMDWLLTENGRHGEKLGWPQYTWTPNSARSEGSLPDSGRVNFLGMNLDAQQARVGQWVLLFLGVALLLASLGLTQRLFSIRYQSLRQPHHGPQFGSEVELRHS
Test: in vitro ACE inhibition, hydrolysis of hippuryl-histidyl-leucine (HHL)
Assay type: biochemical
Details: substrate HHL; test compound studied at concentrations between 10^-9 to 10^-4 M
Description: A number of in vitro and in vivo models are available to assess the biological activity of ACE inhibitors. (cf E. W. Petrillo, Jr. and M. A. Ondetti, Medical Res. Rev. 2, 1 (1982) and references therein). A particularly useful in vitro test employs a preparation of ACE from rabbit lung (either crude or purified) and uses the synthetic substrate (hippuryl-histidyl-leucine) as substrate (D. W. Cushman and H. S. Cheung, Biochem. Pharmacol., 20, 1637 (1971)). The substances to be tested are assessed for their ability to block the cleavage of the substrate and doses which cause 50% inhibition of the hydrolysis of the substrate are determined (ID50). In this and other studies, the incorporation of a literature standard (usually captopril) is helpful.
The ACE inhibiting ability of the dipeptides of formula A is assessed in the in vitro model employing a preparation of ACE from crude rabbit lung acetone powder. Hippuryl-histidyl-leucine (HHL) is used as synthetic substrate to be cleaved (hydrolysed) by ACE (D. W. Cushman and H. S. Cheung, Biochem. Pharmacol., 20, 1637 (1971)). The following compounds of formula A, identified by Arabic numerals (referred to above), were assessed for their ability to block the hydrolysis of HHL to the C-terminal dipeptide His-Leu by the ACE preparation.

Compound: C[C@H](N[C@@H](CCCCNC(=NCC(F)(F)F)NCC(F)(F)F)C(=O)O)C(=O)N1Cc2ccccc2C[C@H]1C(=O)O [(2), (S)-N-[(S)-2-[N^G,N^G' -bis(2,2,2-trifluoroethyl)-(S)-homoargin-Nα-yl]propionyl]-THIQ]
- ID50 (dose which causes a 50% inhibition of the hydrolysis of HHL): 90 nM

Compound: CCCC(NC(CCCCNC(=NCC)NCC)C(=O)O)C(=O)N1CCC[C@H]1C(=O)O (stereo partly drawn) [(13), N-[2-(N^G,N^G' -diethyl-L-homoargin-N^α -yl)pentanoyl]-L-proline]
- ID50 (dose which causes a 50% inhibition of the hydrolysis of HHL): 60 nM

Compound: CCN=C(NCC)NCCCC[C@H](N[C@@H](CC)C(=O)N1Cc2ccccc2C[C@H]1C(=O)O)C(=O)O [(4), (S)-N-[(S)-2-[N^G,N^G' -diethyl-(S)-homoargin-Nα-yl]butanoyl]-THIQ]
- ID50 (dose which causes a 50% inhibition of the hydrolysis of HHL): 65 nM

Compound: CCN=C(NCC)NCCCC[C@H](N[C@@H](C)C(=O)N1c2ccccc2C[C@H]1C(=O)O)C(=O)O [(10), (S)-N-[(S)-2-[N^G,N^G' -diethyl-(S)-homoargin-Nα-yl]propanoyl]-2-carboxy-2,3-dihydroindole]
- ID50 (dose which causes a 50% inhibition of the hydrolysis of HHL): 180 nM

Compound: CCN=C(NCC)NCCCC[C@H](N[C@@H](C)C(=O)N1Cc2ccccc2C[C@H]1C(=O)O)C(=O)O [(1), (S)-N-[(S)-2-[N^G,N^G' -diethyl-(S)-homoargin-Nα-yl]propionyl]-THIQ]
- ID50 (dose which causes a 50% inhibition of the hydrolysis of HHL): 60 nM

Continued, values first:

- ID50 (dose which causes a 50% inhibition of the hydrolysis of HHL): 220 nM
Compound: CCCCNC(=NC)NCCCC[C@H](N[C@@H](C)C(=O)N1Cc2ccccc2C[C@H]1C(=O)O)C(=O)O [(3), (S)-N-[(S)-2-[N^G -methyl-N^G' -n-butyl-(S)-homoargin-Nα-yl]propionyl]-THIQ]

- ID50 (dose which causes a 50% inhibition of the hydrolysis of HHL): 230 nM
Compound: CCN=C(NCC)NCCCCC(NC(CC)C(=O)N1CCC[C@H]1C(=O)O)C(=O)O (stereo partly drawn) [(12), N-[2-(N^G,N^G' -diethyl-L-homoargin-N^α -yl)butanoyl]-L-proline]

- ID50 (dose which causes a 50% inhibition of the hydrolysis of HHL): 280 nM
Compound: CCCCNC(=NC)NCCCCC(NC(C)C(=O)N1CCC[C@H]1C(=O)O)C(=O)O (stereo partly drawn) [(11), N-[2-(N^G -methyl-N^G' -n-butyl-L-homoargin-N^α -yl)propionyl]-L-proline]
